Measurements reported in patent US9113629B2, “4-amino-6-(4-substituted-phenyl)-picolinates and 6-amino-2-(4-substituted-phenyl)-pyrimidine-4-carboxylates and their use as herbicides” (DOW AGROSCIENCES LLC, priority 2013, dated 2015).
Where two headings read alike, the source gives them in different places.

Columns and labels:
[1] = system: Key Broadleaf Weed and Crop Species; assay: Post-emergent Test II herbicidal activity (Table 5); type: in vivo; conditions: post-emergence, 336 h, post-emergent, 14 days after application; for pest or weed control at 70 g/ha: 70 g ai/ha; for pest or weed control at 140 g/ha: 140 g ai/ha
How it was run: (§1)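 Compounds, dissolved in 97:3 acetone/DMSO and diluted into an aqueous carrier containing crop oil concentrate and Triton X-155, are applied over the top of young plants at 187 L/ha. Injury is scored visually at 14 d, 0% meaning no effect and 100% complete kill.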

[2] = system: Key Grass and Sedge Weeds as well as Grass Crops; assay: Post-emergent Test II herbicidal activity (Table 6); type: in vivo; conditions: post-emergence, 336 h; for pest or weed control at 70 g/ha: application rate 70 g ai/ha; for pest or weed control at 140 g/ha: application rate 140 g ai/ha
How it was run: as §1

[3] = ABUTH: velvetleaf (Abutilon theophrasti), read-out: Visual Growth Reduction (%) 14 Days After Application ABUTH
[4] = AMARE: redroot pigweed (Amaranthus retroflexus), read-out: Visual Growth Reduction (%) 14 Days After Application AMARE
[5] = BRSNN: oilseed-rape, canola (Brassica napus), read-out: Visual Growth Reduction (%) 14 Days After Application BRSNN
[6] = CHEAL: lambsquarters (Chenopodium album), read-out: Visual Growth Reduction (%) 14 Days After Application CHEAL
[7] = EPHHL: wild poinsettia (Euphorbia heterophylla), read-out: Visual Growth Reduction (%) 14 Days After Application EPHHL
[8] = HELAN: sunflower (Helianthus annuus), read-out: Visual Growth Reduction (%) 14 Days After Application HELAN
[9] = VIOTR: wild pansy (Viola tricolor), read-out: Visual Growth Reduction (%) 14 Days After Application VIOTR
[10] = CYPES: yellow nutsedge (Cyperus esculentus), read-out: Visual Growth Reduction (%) 14 Days After Application, CYPES
[11] = DIGSA: crabgrass (Digitaria sanguinalis), read-out: Visual Growth Reduction (%) 14 Days After Application, DIGSA
[12] = ECHCG: barnyardgrass (Echinochloa crus-galli), read-out: Visual Growth Reduction (%) 14 Days After Application, ECHCG
[13] = ORYSA: rice (Oryza sativa), read-out: Visual Growth Reduction (%) 14 Days After Application, ORYSA
[14] = SETFA: giant foxtail (Setaria faberi), read-out: Visual Growth Reduction (%) 14 Days After Application, SETFA
[15] = SORVU: grain sorghum (Sorghum vulgare), read-out: Visual Growth Reduction (%) 14 Days After Application, SORVU
[16] = TRZSS (wheat, Triticum aestivum), read-out: Visual Growth Reduction (%) 14 Days After Application, TRZSS
[17] = ZEAMX: maize, corn (Zea mays), read-out: Visual Growth Reduction (%) 14 Days After Application, ZEAMX

Structure (SMILES): COC(=O)c1nc(-c2cc(F)c(C(F)(F)F)cc2F)cc(N)c1Cl [Compound 70, methyl 4-amino-3-chloro-6-(2,5-difluoro-4-(trifluoromethyl)phenyl)picolinate]
- pest or weed control at 70 g/ha [1, 3]: 95 to 100%
- pest or weed control at 140 g/ha [1, 3]: 95 to 100%
- pest or weed control at 70 g/ha [1, 4]: 95 to 100%
- pest or weed control at 140 g/ha [1, 4]: 95 to 100%
- pest or weed control at 70 g/ha [1, 5]: 75 to 84%
- pest or weed control at 140 g/ha [1, 5]: 85 to 94%
- pest or weed control at 70 g/ha [1, 6]: 95 to 100%
- pest or weed control at 140 g/ha [1, 6]: 95 to 100%
- pest or weed control at 70 g/ha [1, 7]: 95 to 100%
- pest or weed control at 140 g/ha [1, 7]: 95 to 100%
- pest or weed control at 70 g/ha [1, 8]: 85 to 94%
- pest or weed control at 140 g/ha [1, 8]: 95 to 100%
- pest or weed control at 70 g/ha [1, 9]: 60 to 74%
- pest or weed control at 140 g/ha [1, 9]: 75 to 84%
- pest or weed control at 70 g/ha [2, 10]: 95 to 100%
- pest or weed control at 140 g/ha [2, 10]: 95 to 100%
- pest or weed control at 70 g/ha [2, 11]: 85 to 94%
- pest or weed control at 140 g/ha [2, 11]: 95 to 100%
- pest or weed control at 70 g/ha [2, 12]: 85 to 94%
- pest or weed control at 140 g/ha [2, 12]: 95 to 100%
- pest or weed control at 70 g/ha [2, 13]: 0 to 29%
- pest or weed control at 140 g/ha [2, 13]: 0 to 29%
- pest or weed control at 70 g/ha [2, 14]: 30 to 44%
- pest or weed control at 140 g/ha [2, 14]: 60 to 74%
- pest or weed control at 70 g/ha [2, 15]: 85 to 94%
- pest or weed control at 140 g/ha [2, 15]: 95 to 100%
- pest or weed control at 70 g/ha [2, 16]: 75 to 84%
- pest or weed control at 140 g/ha [2, 16]: 85 to 94%
- pest or weed control at 70 g/ha [2, 17]: 95 to 100%
- pest or weed control at 140 g/ha [2, 17]: 95 to 100%
